This is an account of results in patent publication US6506876B1, “LTA4 hydrolase inhibitor pharmaceutical compositions and methods of use” (G.D. Searle & Co., priority 1994, dated 2003).

Data set [1] relates to LTB4 production in mouse blood (LTA4 hydrolase). The data set can be described thus: Ex vivo LTB4 production by calcium ionophore stimulated mouse blood after oral dosing. In kind it is in vivo. The settings on record: read-out: Murine Ex Vivo LTB4 Inhibition % I LTB4. A digest of the protocol:
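Male outbred mice dosed by oral gavage, 10 mg/kg (some at 50 mg/kg) in PBS with 2% DMSO and 1% Tween 80; heparinised blood taken at 60 min, calcium ionophore-stimulated 10 minutes at 37° C. LTB4 and thromboxane by ELISA; % inhibition against vehicle-dosed animals.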

For data set [2], the target named is T1, recombinant human LTA4 hydrolase (rhLTA4H) (Homo sapiens, UniProt P09960).
T1 sequence (P09960 1-611): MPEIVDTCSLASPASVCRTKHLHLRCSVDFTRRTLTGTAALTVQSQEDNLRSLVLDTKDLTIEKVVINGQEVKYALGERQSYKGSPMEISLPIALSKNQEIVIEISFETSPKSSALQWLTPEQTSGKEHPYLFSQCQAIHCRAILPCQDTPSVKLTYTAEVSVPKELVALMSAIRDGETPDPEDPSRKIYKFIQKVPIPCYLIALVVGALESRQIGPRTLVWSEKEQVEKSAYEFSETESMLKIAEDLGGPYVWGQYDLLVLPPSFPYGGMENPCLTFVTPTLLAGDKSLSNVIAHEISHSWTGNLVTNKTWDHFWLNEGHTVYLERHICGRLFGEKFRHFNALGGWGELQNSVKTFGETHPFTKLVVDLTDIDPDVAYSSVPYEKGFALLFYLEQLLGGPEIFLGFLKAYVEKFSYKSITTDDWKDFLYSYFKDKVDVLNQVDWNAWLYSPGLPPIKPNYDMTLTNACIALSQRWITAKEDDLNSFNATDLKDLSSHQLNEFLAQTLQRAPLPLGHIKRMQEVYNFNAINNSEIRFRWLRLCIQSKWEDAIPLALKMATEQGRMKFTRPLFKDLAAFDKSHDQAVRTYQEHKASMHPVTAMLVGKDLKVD
Kind of data set: Recombinant human LTA4 hydrolase assay for LTA4 hydrolase inhibitor activity. The settings on record: Recombinant Human LTA4 Hydrolase Assay IC50 LTA4H, recombinant hLTA4H.

Data set [3] concerns LTB4 production in human whole blood (LTA4 hydrolase). The data set can be described thus: LTB4 production by calcium ionophore stimulated human blood. The settings on record: Homo sapiens, human whole blood, A23187; read-out: Inhibition of Calcium Ionophore-Induced LTB4 Production in Human Blood IC50 HWB. In kind it is cell-based. Here is the method: LTB4 and Thromboxane Production by Calcium Ionophore Stimulated Human Blood for LTA4 Hydrolase Inhibitor Activity
One or more concentrations of the leukotriene A4 hydrolase inhibitor compounds being tested were prepared (diluted in DMSO) and 2 μl added and gently mixed with the diluted whole blood. After incubating for 15 minutes at 37° C. in a humidified incubator, calcium ionophore A23187 (Sigma Chemical Co., St. Louis, Mo.) was added to a final concentration of 20 mcg/ml and the incubation continued under the same conditions for an additional 10 minutes to allow LTB4 formation. The reaction was terminated by centrifugation (833 g, 10 minutes at 4° C.) and supernatant were analyzed for LTB4 and thromboxane by commercially available enzyme-linked immunoassays (Caymen Chemical Co., Ann Arbor, Mich.) according to the manufacturer's instructions. The IC50 of each test compound was determined from the amount of inhibition of LTB4 production as compared to an essentially identical assay in which no inhibitor compound was present.

A further data set addresses T2, LTA4 hydrolase (Homo sapiens, UniProt P09960).
T2 sequence (P09960 1-611): T1 sequence (P09960 1-611)
The settings on record: background statement; cited from earlier work.

[4] abbreviates: mouse, oral gavage, 1 hour after administration of 10 mg/kg.

Each structure is given as a SMILES string. Counter-ions that a name gives are not always drawn. Like-named read-outs stand apart in the source and are kept apart here.

For the molecule `c1ccc(Oc2ccc(NCCN3CCCC3)cc2)cc1` (as salt: HCl) [Example 71, N-(4-phenoxyphenyl)-1-pyrrolidine ethanamine, monohydrochloride], the melting point (as a rule, the temperature of the solid-liquid transition) fell in the range of 202 to 202.5 °C.

In turn, `Cl.c1ccc(Cc2ccc(SCCN3CCCC3)cc2)cc1` [Example 68, 1-[2-[4-(phenylmethyl)phenylthio]ethyl]pyrrolidine, monohydrochloride] yielded a melting point of 137 to 139 °C.

Regarding `OCCOc1ccc(Oc2ccc(F)cc2)cc1` [Example 161], the melting point is 78 to 79 °C.

`Oc1ccc(OCCN2CCCC2)cc1` [Example 199] came in with a melting point of 113 to 115 °C.

Turning to `O=C(O)[C@@H]1CCCN1CCCOc1ccc(Cc2ccccc2)cc1` [Example 430], the melting point was in the range of 165 to 169 °C. Further, the inhibition in vivo at 10 mg/kg in data set [1] (setting [4]) came to 37%. For the same molecule, the IC50 (commonly the point on the concentration scale where inhibition reaches its midpoint) in data set [2] was determined as 110 nM.

In turn, `O=C(O)CCNCCCOc1ccc(Cc2ccccc2)cc1` [Example 431] registered a melting point of 165 to 167 °C. Moreover, the IC50 in data set [3] was found to be 280 nM. In addition, in data set [1] (setting [4]), the inhibition in vivo at 10 mg/kg was found to be 71%.

In turn, `O=C(O)CCNCCCCOc1ccc(Cc2ccccc2)cc1` [Example 433] had a melting point of 140 to 141 °C. The inhibition in vivo at 10 mg/kg in data set [1] (setting [4]) was determined as 71%.

`CN(CCCOc1ccc(Cc2ccccc2)cc1)CCC(=O)O` [Example 434]: the melting point is 113 to 116 °C. Besides, the inhibition in vivo at 10 mg/kg in data set [1] (Mus musculus, po, 1 h) was 100%.

As to `NC(=O)NC1CCN(CCOc2ccc(Cc3ccccc3)cc2)C1` (stereo not shown) [Example 453], the melting point lay in the range of 132 to 134 °C. Also, in data set [3], the IC50 was 350 nM. Further, in data set [1] (setting [4]), the inhibition in vivo at 10 mg/kg turned out to be 92%.

With `C1=CC2CC1CN2CCOc1ccc(Cc2ccccc2)cc1` (stereo not shown) [Example 497], the melting point fell in the range of 37 to 38 °C. The inhibition in vivo at 10 mg/kg in data set [1] (setting [4]) was determined as 45%. Also, in data set [2], the IC50 is 200 nM.

For `CC(C)C[C@H](NC(=O)[C@@H](O)[C@H](N)Cc1ccccc1)C(=O)O` [bestatin], the “LTA4 hydrolase inhibitory activity” value on LTA4 hydrolase is listed as “exhibit LTA4 hydrolase inhibitory activity”.

Regarding `C[C@H](CS)C(=O)N1CCC[C@H]1C(=O)O` [captopril], at LTA4 hydrolase, the “LTA4 hydrolase inhibitory activity” value is given as “exhibit LTA4 hydrolase inhibitory activity”.
